Results reported in patent publication US9254290B2, “Method for screening diabetes treating agent” (GWANGJU INSTITUTE OF SCIENCE AND TECHNOLOGY, priority 2010, dated 2016).
Entries after “also recorded” stand apart in the source; their conditions may differ.

Legend:
[1] = system: human aortic endothelial cells (HAEC); experiment: Monocyte-endothelial cell adhesion assay (THP-1 monocytes, hyperglycemia); assay type: cell-based; conditions: 30 mM glucose; 5 μM compound for 3 hrs before THP-1 monocytes
Procedure: (§1) HAEC were exposed to hyperglycemia (30 mM glucose) for days and treated with 5 μM compounds AP-III-a4 or AP-I-h7 or 100 nM insulin for 3 hrs prior to addition of THP-1 monocytes. […] Data is representative of three independent experiments. 5 mM glucose=normoglycemia; 30 mM glucose=hyperglycemia (5 days treatment); AP-III-a4=hyperglycemia (5 days treatment) and 24 hrs treatment with 5 μM AP-III-a4; AP-I-h7=hyperglycemia (5 days treatment) and 24 hrs treatment with […]; MLB=hyperglycemia (5 days treatment) and 48 hrs treatment with 50 μM magnesium lithospermate B.
Human aortic endothelial cells were supplied by Cambrex (NJ, USA) and cultured in EBM-2 growth media supplemented with the EGM-2 bullet kit. […]
The adhesion of mouse inflammatory peritoneal (IP) exudate macrophages to endothelial cell monlayers was carried out as previously described.^14 Briefly, endothelial cells were cultured to confluence in 6-well culture plates and treated with drug with or without high glucose (30 mM for 48 h) culture media. […] The unbound cells were washed three times with serum-free RPMI-1640 medium, and the total number of adherent cells was counted in four randomly selected optical fields per well (100× magnification; Olympus microscope CKX41, Japan; microscopic images were captured with a DigiEye 330 digital camera (Dewinter, India) and Biowizard 4.3 software (Dewinter, India)). […]

[2] = system: 3T3-L1 adipocytes and pre-adipocytes; experiment: Fluorescent microscope analysis of NBDG uptake in mixed cultures of adipocytes and pre-adipocytes; assay type: cell-based, murine; conditions: 10 μM compound; adipocytes vs pre-adipocytes (fibroblast-like)
Excerpt: (§2) Error=SD. *=P<0.05 compared to 3T3-L1 adipocytes in the same treatment group. […] Data is representative of three independent experiments.

[3] = system: insulin resistant 3T3-L1 adipocytes; experiment: NBDG uptake in adipocytes rendered insulin resistant with TNF-α; assay type: cell-based, murine
Excerpt: as §2

3T3-L1 adipocytes [4] = experiment: 6-NBDG uptake screening in 3T3-L1 adipocytes, 96-well, fluorescent microplate reader; assay type: cell-based, murine; conditions: for NBDG uptake in adipocytes on re-testing of purified compounds: 250 nM-20 μM, compared with insulin and zinc sulfate; for effect of GLUT inhibitors (4,6-EDG, cytochalasin B) on compound-induced NBDG uptake: with 4,6-EDG (50 mM) or cytochalasin B; for effect on insulin-stimulated 6-NBDG uptake: 3 h pre-treatment with inhibitors
Procedure: 3T3-L1 murine fibroblasts were maintained in proliferation media, consisting of DMEM supplemented with 10% FBS, 50 units/mL penicillin and 50 μg/mL streptomycin. 3T3-L1 fibroblasts were induced to differentiate into adipocytes as follows: 48 h postconfluent cells (designated day 0) were cultured in DMEM supplemented 10% FBS, 0.5 mM 3-isobutyl-1-methyl-xanthine, 2 μg/ml dexamethasone, 1 μg/ml insulin, 50 units/mL penicillin and 50 μg/mL streptomycin for 2 days. Every 2 days thereafter, the cells were incubated with fresh DMEM supplemented with 10% FBS and 1 μg/ml insulin. 3T3-L1 adipocytes were used for experiments 8 days after the induction of differentiation.
(§3) Three cell lines were chosen to test if NBDG can be used to detect insulin-stimulated glucose uptake in a 96 well plate culture format, which is more suitable for cell-based screening to identify novel insulin mimetic compounds. The cell lines chosen were Huh7 hepatocytes, C2C12 myoblasts and 3T3-L1 pre-adipocytes, which represent the major body tissue types that are sensitive to the action of insulin (liver, muscle and fat). 10^4 cells/well were seeded in a black, 96 well tissue culture plate (BD Falcon, NJ, USA). C2C12 myoblasts and 3T3-L1 adipocytes were induced to undergo differentiation into myotubes and adipocytes, respectively, to compare the NDBG signal in proliferating and differentiated cells. NBDG uptake was measured following treatment with 10 nM or 100 nM insulin, and 1 μM or 10 μM rosiglitazone (an insulin-sensitizing agent), using a fluorescent microplate reader (SpectraMAX GeminiXS and SoftMax Pro V5 software, Molecular Devices, CA, USA). Cells were cultured in serum-free low glucose culture media for 3 h before the addition of insulin.
To test the NBDG-based screening system, a combinatorial chemical library of 576 triazine-based small molecules was screened at a concentration of 5 μM. The combinatorial library was provided by Professor Young-Tae Chang, Department of Chemistry, National University of Singapore.
To test if this screening protocol could detect new insulin mimetic compounds, a combinatorial chemical library of 576 triazine-based small molecules was screened.

3T3-L1 adipocytes [5] = experiment: Detection of apoptosis (Apo-TRACE staining, microplate quantification); assay type: cell-based, murine; conditions: 5 μM, 24 hrs
Procedure: 3T3-L1 pre-adipocytes were cultured to confluence in 24-well plates and induced to differentiate into adipocytes. The induction of apoptosis was detected using the Apo-TRACE™ Apoptotic Cell Staining Kit (Sigma-Aldrich, SL, USA), which employs a fluorescent compound that responds to alterations in plasma membrane potential and phospholipid scrambling, which are hallmarks of apoptotic cells. Apoptotic cells were visualized by microscopy under UV illumination (Olympus IX81, Japan) equipped with MetaMorph 7.5 image capture software (Molecular Devices, CA, USA)). Images were processed with Photoshop CS4 software (Adobe Systems Incorporated, CA, USA). Apoptosis was quantified by fluorescent microplate reader analysis of cell lysate.

VCAM-1 [6] = experiment: VCAM-1 expression in HAEC exposed to hyperglycemia (Western blot); assay type: cell-based, human; conditions: 30 mM glucose 5 days; 24 hrs treatment with 5 μM
Procedure: as §1
Human aortic endothelial cells were supplied by Cambrex (NJ, USA) and cultured in EBM-2 growth media supplemented with the EGM-2 bullet kit. THP-1 human monocytic cells were cultured in RPMI-1640 medium supplemented with […] 2-mercaptoethanol, 10% fetal bovine serum and antibiotics. Cells were cultured in growth media containing 5 mM glucose for the normoglycemia condition or 30 mM glucose for the hyperglycemia condition.
Proteins were separated by 10% SDS-PAGE and transferred onto […] nitrocellulose (Bio-Rad, CA, USA). Densitometry was carried out using TINA 2.10e software (Catholic University Medical College (GmBH), Germany).

3T3-L1 adipocytes [7] = experiment: Commercial enzyme-based glucose content assay (Biovision); assay type: cell-based, murine; conditions: tested in triplicate
Procedure: For comparison and validation of our new screening based on NBDG uptake, we used a commercial, enzyme-based glucose assay provided by Biovision Inc., CA, USA. 3T3-L1 adipocytes were seeded at 5×10^4 cells/well in a 96-well culture plate. 24 h later, culture media was changed and adipocytes were cultured in serum-free low glucose DMEM for 3 h prior to drug treatment. Cells were lysed with 100 μL Cell Lytic M (Sigma-Aldrich, SL, USA) and 50 μL lysate was used for assay.

3T3-L1 adipocytes [8] = experiment: Epinephrine-stimulated free fatty acid release assay; assay type: cell-based, murine; conditions: for inhibition of epinephrine-stimulated free fatty acid release: 5 μM compound, 10 μM epinephrine
Procedure: Epinephrine-stimulated free fatty acid (FFA) release from adipocytes was measured using the Free Fatty Acid Quantification Kit (Biovision, CA, USA), following the method previously described^13. Confluent 3T3-L1 adipocytes in a 24 well plate were cultured for 3 h in serum-free culture media. Adipocytes were then treated with 10 μM epinephrine dissolved in saline to induce FFA […] release. Drug of interest was added 10 min before the addition of epinephrine. Cell lysate was collected and 50 μL of the organic phase was used for assay. Palmitic acid was used to generate the standard curve.

3T3-L1 adipocytes [9] = experiment: Necrosis / cell death by trypan blue exclusion; assay type: cell-based; conditions: 24 h after treatment
Procedure: Necrosis was detected by the ability of cells to exclude the dye, trypan blue. 3T3-L1 adipocytes were cultured to confluence in 6-well plates and treated with drug. Adipocytes were then harvested by trpsinization and resuspended in 1 mL PBS. A 50 μL aliquot was taken and stained with an equal volume of 0.4% trypan blue solution (Sigma, SL, USA). Cells that could not exclude dye were classified as necrotic and quantified using a hemocytometer.

[10] = system: human aortic endothelial cells (HAEC); conditions: cited from earlier work
VCAM-1 [11] = conditions: cited from earlier work
3T3-L1 adipocytes [12] = experiment: 2-NBDG uptake in insulin-responsive cell lines, 96-well; assay type: cell-based, murine; conditions: 10 nM or 100 nM insulin, 30 min; compared to Huh7, C2C12 myoblasts/myotubes, 3T3-L1 pre-adipocytes
Procedure: as §3

Question: What does the source list for `NCCOCCOCCNC(=O)Cc1ccc(Nc2nc(NCc3ccc(F)cc3)nc(NCC3CCCCC3)n2)cc1` [AP-III-a4]?
Answer: monocyte adhesion in hyperglycemic conditions [1]: decreased monocyte adhesion; also recorded: reduced monocyte adhesion; cell-type preference of NBDG uptake [2]: preferentially taken up in the adipocytes; also recorded: preferentially occurs in adipocytes rather than fibroblasts; sensitivity of compound-induced NBDG uptake to insulin resistance [3]: sensitive to the induction of insulin resistance; NBDG uptake in adipocytes on re-testing of purified compounds (3T3-L1 adipocytes [4]): can increase NBDG uptake; also recorded: promote NBDG uptake in adipocytes; effect of GLUT inhibitors (4,6-EDG, cytochalasin B) on compound-induced NBDG uptake (3T3-L1 adipocytes [4]): sensitive to exo- and endofacial inhibitors of GLUT; induction of apoptosis (3T3-L1 adipocytes [5]): did not induce apoptosis; VCAM-1 expression / upregulation in hyperglycemic conditions (VCAM-1 [6]): decreased VCAM-1 upregulation; also recorded: reduced the expression of VCAM-1; cellular glucose content (3T3-L1 adipocytes [7]): induced an increase in cellular glucose content; concentration required to produce insulin mimetic activity in adipocytes (3T3-L1 adipocytes [8]): 5 µM; inhibition of epinephrine-stimulated free fatty acid release (3T3-L1 adipocytes [8]): could inhibit epinephrine-stimulated free fatty acid release; also recorded: inhibit 10 μM epinephrine-mediated FFA release

Question: With `CC1OC[C@H]2O[C@H](O)[C@H](O)[C@@H](O)[C@@H]2O1` (stereo partly drawn) [4,6-EDG, 4,6-ethylidine-D-glucose, reference compound] as the compound, how does the “effect on insulin-stimulated 6-NBDG uptake” value (3T3-L1 adipocytes [4]; 100 nM insulin) read?
Answer: The value was “reduced insulin-stimulated uptake of 6-NBDG; also recorded: inhibited”.

Question: Which results are given for `CCCCNc1nc(NCCc2ccccc2)nc(Nc2ccc(CC(=O)NCCOCCOCCN)cc2)n1` [AP-I-h7]?
Answer: monocyte adhesion in hyperglycemic conditions [1]: decreased monocyte adhesion; also recorded: reduced monocyte adhesion; cell-type preference of NBDG uptake [2]: preferentially taken up in the adipocytes; also recorded: preferentially occurs in adipocytes rather than fibroblasts; sensitivity of compound-induced NBDG uptake to insulin resistance [3]: sensitive to the induction of insulin resistance; NBDG uptake in adipocytes on re-testing of purified compounds (3T3-L1 adipocytes [4]): can increase NBDG uptake; also recorded: promote NBDG uptake in adipocytes; effect of GLUT inhibitors (4,6-EDG, cytochalasin B) on compound-induced NBDG uptake (3T3-L1 adipocytes [4]): sensitive to exo- and endofacial inhibitors of GLUT; induction of apoptosis (3T3-L1 adipocytes [5]): did not induce apoptosis; VCAM-1 expression / upregulation in hyperglycemic conditions (VCAM-1 [6]): decreased VCAM-1 upregulation; also recorded: reduced the expression of VCAM-1; cellular glucose content (3T3-L1 adipocytes [7]): induced an increase in cellular glucose content; concentration required to produce insulin mimetic activity in adipocytes (3T3-L1 adipocytes [8]): 5 µM; inhibition of epinephrine-stimulated free fatty acid release (3T3-L1 adipocytes [8]): could inhibit epinephrine-stimulated free fatty acid release; also recorded: inhibit 10 μM epinephrine-mediated FFA release

Question: What does the source list for `CCCCNc1nc(Nc2ccc(CC(=O)NCCOCCOCCN)cc2)nc(N2CCCCC2)n1` [AP-IV-e3]?
Answer: induction of cell death (trypan blue exclusion) (3T3-L1 adipocytes [9]): induced cell death; NBDG uptake in adipocytes on re-testing of purified compounds (3T3-L1 adipocytes [4]): can increase NBDG uptake; also recorded: promote NBDG uptake in adipocytes; effect of GLUT inhibitors (4,6-EDG, cytochalasin B) on compound-induced NBDG uptake (3T3-L1 adipocytes [4]): sensitive to exo- and endofacial inhibitors of GLUT; induction of apoptosis (3T3-L1 adipocytes [5]): induced apoptosis

Question: With `C=C1[C@@H](C)[C@H]2[C@H](Cc3ccccc3)NC(=O)[C@]23OC(=O)/C=C/[C@H](O)CCC[C@@H](C)C/C=C/[C@H]3[C@@H]1O` [cytochalasin B, reference compound] as the compound, how does the “effect on insulin-stimulated 6-NBDG uptake” value (3T3-L1 adipocytes [4]; 100 nM insulin) read?
Answer: Its value is “reduced insulin-stimulated uptake of 6-NBDG; also recorded: inhibited”.

Question: Which “sensitivity of 6-NBDG uptake in adipocytes to the agent” value (3T3-L1 adipocytes [4]; 1 μM rosiglitazone, 100 nM insulin) does the source give for insulin: Insulin from bovine pancreas here?
Answer: Its value is “sensitive”.

Question: What about the “effect on monocyte-endothelial adhesion (literature)” value [10] of the same compound?
Answer: Its value is “no inhibitory effect on monocyte-endothelial adhesion”.

Question: What about the cellular glucose content (3T3-L1 adipocytes [7]) of the same compound?
Answer: Its cellular glucose content is “induced an increase in cellular glucose content”.

Question: And the “effect on adhesion molecule expression in endothelial cells (literature)” value (VCAM-1 [11])?
Answer: Its value is “not to inhibit adhesion molecule expression”.

Question: And the “2-NBDG uptake after insulin treatment” value (3T3-L1 adipocytes [12])?
Answer: Its value is “largest increase in 2-NBDG uptake”.

Question: Which “induction of cell death (trypan blue exclusion)” value (3T3-L1 adipocytes [9]) does the source give for `NCCOCCOCCNC(=O)Cc1ccc(Nc2nc(NCC3CCCCC3)nc(N3CCCCC3)n2)cc1` [AP-IV-e4] here?
Answer: The value was “induced cell death”.

Question: And the “NBDG uptake in adipocytes on re-testing of purified compounds” value (3T3-L1 adipocytes [4])?
Answer: Its value is “can increase NBDG uptake; also recorded: promote NBDG uptake in adipocytes”.

Question: And the “effect of GLUT inhibitors (4,6-EDG, cytochalasin B) on compound-induced NBDG uptake” value (3T3-L1 adipocytes [4])?
Answer: Its value is “sensitive to exo- and endofacial inhibitors of GLUT”.

Question: And the induction of apoptosis (3T3-L1 adipocytes [5])?
Answer: Its induction of apoptosis is “induced apoptosis”.

Question: Which “effect of GLUT inhibitors (4,6-EDG, cytochalasin B) on compound-induced NBDG uptake” value (3T3-L1 adipocytes [4]) does the source give for `O=S(=O)([O-])[O-].[Zn+2]` [zinc sulfate, reference compound] here?
Answer: Its value is “reduced NBDG uptake”.
